{
  "source": "paper PMC11842024",
  "about": "“Reversible male contraception by targeted inhibition of serine/threonine kinase 33” (Science (New York, N.Y.), 2024)",
  "key": {"[1]": {"test": "Pharmacokinetics (PK) of CDD-2807 in mice", "assay_type": "in vivo", "conditions": "plasma; for AUC(0-inf) / AUC(0-t) / Cmax / Tmax / MRT inf / half-life: male, C57BL/6NJ, mouse; for MRT inf: read-out: MRT0-∞", "protocol": "Pharmacokinetics (PK) of CDD-2807 in mice. The pharmacokinetic studies (72) of CDD-2807 were performed at three doses via intraperitoneal (i.p.) injection and oral (p.o.) administration.\nCDD-2807 was dissolved in 10% Captisol containing 5% DMSO to prepare the solutions of 0.5 mg/mL, 2.5 mg/mL and 5.0 mg/mL. Twelve male mice (strain: C57BL/6NJ, 8−12 weeks) were divided equally and randomly into 4 groups (n = 3 for each dose). One group of mice were administered 5 mg/kg CDD-2807 (i.p., 10 µL/g of 0.5 mg/mL solution), the second group 25 mg/kg CDD-2807 (i.p., 10 µL/g of 2.5 mg/mL solution), the third group 5 mg/kg CDD-2807 (p.o., 10 µL/g of 0.5 mg/mL solution), and the fourth group 50 mg/kg CDD-2807 (p.o., 10 µL/g of 5.0 mg/mL solution). At 0, 5, 10, 15, 30 min, 1, 2, 4, 6, 8, 24 h post-dose, around 20 µL of blood was collected from the tail vein and anti-coagulated by heparin. The blood samples were centrifuged at 2000 g for 3 min at 4°C, and the plasma samples were transferred to tubes and stored at −80°C before analysis. All the samples were analyzed by the Thermo TSQ Quantis MS coupled with a Thermo Vanquish UHPLC (San Jose, CA). CDD-2807 was separated on a Luna C18 column (1 mm × 50 mm, 1.6 µm, Phenomenex, Torrance, CA), and eluted by a water-acetonitrile mobile phase system (both containing 0.1% formic acid, v/v) at the flow rate of 0.15 mL/min. CDD-2807 was monitored under the SRM mode coupled with a positive ESI source. The SRM ion pairs were 447→321 for CDD-2807. The ion spray voltage was set at 3500 V. High-purity nitrogen was used as the sheath gas (35 arbitrary unit), auxiliary gas (7 arbitrary unit), and high-purity argon was used as the collision gas. The temperatures of the ion transfer tube and the vaporizer were set at 300°C and 275°C, respectively. The concentration of CDD-2807 in plasma was quantified using individual calibration curves. The calibration curve was regressed with a weight of 1/x2 with high linearity (r2 >0.99). PK parameters, including half-time (t1/2), area under the plasma concentration– time curve from zero to infinity (AUC0–∞), clearance normalized by the bioavailability (CL/F), volume of distribution normalized by the bioavailability (Vd/F), and the mean residence time (MRT), were calculated by WinNonlin software (Certara, Princeton, NJ) by noncompartmental analysis. The plasma concentration–time curves were plotted in GraphPad Prism 9 (San Diego, […]"}, "male mice": {"test_system": "male mice", "test": "Scanning electron microscopy (SEM) of sperm morphology", "assay_type": "in vivo", "conditions": "protocol 2 at 63 days, n = 3", "source_text": "Fig. 4. CDD-2807 treatment induces a reversible contraceptive effect. […] Fertility was restored to levels equal to those of controls after halting CDD-2807 treatment for 3 weeks in protocol 1; in protocol 2, fertility was restored an average of 53.5 ± 5.1 days after completion of CDD-2807 treatment compared to the controls (3.5 ± 0.2 days). (C) There are no observed morphological differences in testes from control and CDD-2807 treatment in mice from protocol 2 at 63 days; testis size of CDD-2807–treated mice in protocol 2 (87.13 ± 5.87 mg) was not statistically changed versus control males (111.10 ± 6.50 mg). […] (H) For SEM quantification, a minimum of 100 sperm per group were counted and determined to be either normal or abnormal (having head or tail defects). Counts were totaled and then turned into a percentage of normal versus abnormal sperm per group. By SEM analysis, 94.7 ± 2.7% of the sperm in the CDD-2807–treated mice (n = 3) in protocol 2 had morphologic defects at 63 days, including head and tail defects as shown, compared to only 10.9 ± 2.7% abnormal sperm for the controls (n = 3). Scale bars: 0.5 cm (C), […] (H). **P < 0.01, ***P < 0.001, ****P < 0.0001."}, "[2]": {"conditions": "po, p.o. administration 5 mg/kg"}, "[3]": {"conditions": "po, p.o. administration 50 mg/kg"}},
  "note": "Where two headings read alike, the source gives them in different places.",
  "data": [
    {"compound": "O=C(c1ccc2[nH]nc(C#Cc3ccccc3-c3ccccc3)c2c1)N1CC2(CCCNC2)C1", "note": "[CDD-2807]", "values": [
      {"measurement": "AUC(0-inf)", "setting": "[1]; ip, i.p. injection 5 mg/kg", "value": "11.2 ± 1.11", "unit": "µM·h"},
      {"measurement": "AUC(0-t)", "setting": "[1]; ip, i.p. injection 5 mg/kg", "value": "9.46 ± 1.47", "unit": "µM·h"},
      {"measurement": "Cmax", "setting": "[1]; ip, i.p. injection 5 mg/kg", "value": "2950 ± 640", "unit": "nM"},
      {"measurement": "Tmax", "setting": "[1]; ip, i.p. injection 5 mg/kg", "value": "0.33 ± 0.14", "unit": "h"},
      {"measurement": "MRT inf", "setting": "[1]; ip, i.p. injection 5 mg/kg", "value": "11.1 ± 4.43", "unit": "h"},
      {"measurement": "half-life", "setting": "[1]; ip, i.p. injection 5 mg/kg, read-out: t1/2 (converted)", "value": "11.9 ± 4.38", "unit": "h"},
      {"measurement": "AUC(0-inf)", "setting": "[1]; ip, i.p. injection 25 mg/kg", "value": "67.7 ± 12.4", "unit": "µM·h"},
      {"measurement": "AUC(0-t)", "setting": "[1]; ip, i.p. injection 25 mg/kg", "value": "55.5 ± 5.42", "unit": "µM·h"},
      {"measurement": "Cmax", "setting": "[1]; ip, i.p. injection 25 mg/kg", "value": "11900 ± 400", "unit": "nM"},
      {"measurement": "Tmax", "setting": "[1]; ip, i.p. injection 25 mg/kg", "value": "0.33 ± 0.14", "unit": "h"},
      {"measurement": "MRT inf", "setting": "[1]; ip, i.p. injection 25 mg/kg", "value": "12.2 ± 3.8", "unit": "h"},
      {"measurement": "half-life", "setting": "[1]; ip, i.p. injection 25 mg/kg, read-out: t1/2 (converted)", "value": "11.3 ± 3.41", "unit": "h"},
      {"measurement": "half-life", "setting": "[1]; ip, delivered intraperitoneally, read-out: plasma t1/2", "value": "> 11", "unit": "h"},
      {"measurement": "AUC(0-inf)", "setting": "[1]; [2]", "value": "1.85 ± 0.66", "unit": "µM·h"},
      {"measurement": "AUC(0-t)", "setting": "[1]; [2]", "value": "0.71 ± 0.07", "unit": "µM·h"},
      {"measurement": "Cmax", "setting": "[1]; [2]", "value": "60 ± 20", "unit": "nM"},
      {"measurement": "Tmax", "setting": "[1]; [2]", "value": "1.03 ± 0.96", "unit": "h"},
      {"measurement": "MRT inf", "setting": "[1]; [2]", "value": "51.2 ± 28.9", "unit": "h"},
      {"measurement": "half-life", "setting": "[1]; po, p.o. administration 5 mg/kg, read-out: t1/2 (converted)", "value": "36.1 ± 19.9", "unit": "h"},
      {"measurement": "AUC(0-inf)", "setting": "[1]; [3]", "value": "2.47 ± 0.34", "unit": "µM·h"},
      {"measurement": "AUC(0-t)", "setting": "[1]; [3]", "value": "1.88 ± 0.36", "unit": "µM·h"},
      {"measurement": "Cmax", "setting": "[1]; [3]", "value": "180 ± 90", "unit": "nM"},
      {"measurement": "Tmax", "setting": "[1]; [3]", "value": "2.67 ± 1.15", "unit": "h"},
      {"measurement": "MRT inf", "setting": "[1]; [3]", "value": "16.5 ± 2.8", "unit": "h"},
      {"measurement": "half-life", "setting": "[1]; po, p.o. administration 50 mg/kg, read-out: t1/2 (converted)", "value": "12.6 ± 1.5", "unit": "h"},
      {"measurement": "CL/F", "setting": "[1]; p.o. administration 5 mg/kg", "value": "2.91 ± 0.87", "unit": "mg/h/µM/kg"},
      {"measurement": "Vd/F", "setting": "[1]; p.o. administration 5 mg/kg", "value": "134.88 ± 26.14", "unit": "mg/µM/kg"},
      {"measurement": "CL/F", "setting": "[1]; p.o. administration 50 mg/kg", "value": "20.52 ± 3.02", "unit": "mg/h/µM/kg"},
      {"measurement": "Vd/F", "setting": "[1]; p.o. administration 50 mg/kg", "value": "376.76 ± 89.83", "unit": "mg/µM/kg"},
      {"measurement": "sperm with morphologic defects (abnormal sperm) by SEM", "setting": "male mice", "value": "94.7 ± 2.7", "unit": "%"}
    ]}
  ]
}
